Consider two molecules from PMC5727842, “Antioxidant and Antidiabetic Effects of Flavonoids: A Structure-Activity Relationship Based Study” (BioMed Research International, 2017).

A short description of assay [1]: DPPH radical scavenging assay. To be noted: 30 min, 517 nm, mean ± SEM (n = 3). As to the method:
Each sample's stock solution was diluted to final concentrations of 1000–0.4889 μg/mL in MeOH. A total of 1 mL of a 0.3 mM DPPH methanolic solution was added to 2.5 mL of sample solution of different concentrations and allowed to react at room temperature. After 30 min, the absorbance (Abs) values were measured at 517 nm with a microplate reader (Tecan NanoQuant Infinite M200, Switzerland) and converted into the percentage antioxidant activity using the following equation described previously: (1) % antioxidant activity=100−Abssample−Abssample blank/Abscontrol−Abscontrol blank×100. MeOH + compound solution was used as a blank, while DPPH solution plus MeOH was used as a negative control. The positive controls were DPPH solution plus 1 mM ascorbic acid. The IC50 values were calculated by linear regression of plots. The average percent of scavenging capacity was taken from three replicates.
For orientation: The DPPH test is a chemical assay of radical scavenging.

A further assay deals with T1, DPP-4 (Homo sapiens, UniProt P27487).
T1 construct: purchased Cayman (Michigan, USA)
As to the kind of experiment: Dipeptidyl peptidase IV (DPP-4) inhibitory assay. It is filed as biochemical. The following applies: Table 3; mean ± SEM (n = 3); NA: not active. As for the experimental part: Dipeptidyl peptidase (IV) inhibitors work by inhibiting the action of this enzyme, thereby prolonging the activity of incretins that play an important role in insulin secretion and blood glucose control regulation. DPP-4 inhibitory assay was performed as per the standard method (Cayman, USA). Firstly, 1 mg of sample was dissolved in 10% of DMSO and MeOH as the stock solution. For initial activity (100%), 10 μL of MeOH, 30 μL of diluted assay buffer, and 10 μL of diluted DPP-4 (Cayman, USA) were added to 96-well microplate. […] For background well, 10 μL of MeOH and 40 μL of diluted assay buffer were added. Then, 10 μL of prepared sample and 30 μL of diluted assay buffer were added with 10 μL of diluted DPP-4. After that, 50 μL of substrate solution was added to all wells to initiate the reaction and further incubated in the dark at 37°C for 30 min. Finally, plate was read at 360 nm of excitation wavelength and 465 nm of emission wavelength using fluorescence microplate reader (Perkin Elmer, Germany). All determinations were done in triplicate and half maximal concentration (IC50) values were calculated from the percentage of inhibition based on the linear regression analysis. The equation given below was applied to calculate the inhibitory activity (%):(5) Inhibitory activity%=Initial Activity−Sample/Initial Activity×100%.
For DPP-4 inhibitory assay, the reaction is based on the cleavage of the peptide bond by DPP releasing the free Gly-Pro-aminomethylcoumarin group, a fluorogenic substrate resulting in fluorescence excitation and emission.

T1 sequence (P27487 whole entry): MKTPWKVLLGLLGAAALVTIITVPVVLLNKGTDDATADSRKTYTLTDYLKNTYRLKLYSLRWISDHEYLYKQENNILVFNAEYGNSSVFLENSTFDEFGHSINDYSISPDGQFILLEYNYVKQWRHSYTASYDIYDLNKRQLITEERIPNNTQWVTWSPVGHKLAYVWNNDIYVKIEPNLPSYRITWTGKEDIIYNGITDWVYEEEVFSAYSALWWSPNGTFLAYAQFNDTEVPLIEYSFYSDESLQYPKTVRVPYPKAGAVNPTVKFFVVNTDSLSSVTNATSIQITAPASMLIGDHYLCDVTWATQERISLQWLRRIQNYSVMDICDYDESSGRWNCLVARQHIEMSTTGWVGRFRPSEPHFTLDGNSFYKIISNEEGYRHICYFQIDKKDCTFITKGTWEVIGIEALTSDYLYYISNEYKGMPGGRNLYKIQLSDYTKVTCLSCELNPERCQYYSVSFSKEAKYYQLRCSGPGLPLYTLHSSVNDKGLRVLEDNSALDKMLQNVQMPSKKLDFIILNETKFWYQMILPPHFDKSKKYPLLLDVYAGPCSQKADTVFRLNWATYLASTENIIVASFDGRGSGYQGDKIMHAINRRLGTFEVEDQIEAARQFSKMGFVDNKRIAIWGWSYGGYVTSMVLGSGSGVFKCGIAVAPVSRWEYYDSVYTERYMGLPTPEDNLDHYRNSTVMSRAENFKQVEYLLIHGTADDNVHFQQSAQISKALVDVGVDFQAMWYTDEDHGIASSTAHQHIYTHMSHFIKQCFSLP

For the molecule `COc1cc(O)c2c(=O)cc(-c3ccccc3)oc2c1` [Techtochrysin, 5-Hydroxy-7-methoxyflavone], the “IC50 DPPH” value in assay [1] is >100^B µg/ml. The molecule also had an IC50 at DPP-4 greater than 373 µM.

Take `O=c1cc(-c2ccc(O)c(O)c2)oc2c(O)c(O)cc(O)c12` [Hypolaetin, 3′,4′,5,7,8-Pentahydroxyflavone]: the “IC50 DPPH” value in assay [1] was 3.69 ± 0.11^Ha µg/ml. Moreover, the IC50 against DPP-4 is 115 µM.

Usually IC50 stands for the concentration that inhibits the measured activity by half.
